# From patent US9522184B2, “CD89 activation in therapy” (CSL BEHRING AG, priority 2010, dated 2016)
# Tests used:
# [1] = test system: neutrophils; assay: Pan-caspase inhibition of IgA-mediated neutrophil cell death; format: cell-based, human; details: qVD-OPh 20 μM, 24 hours, in the presence and absence of LPS and GM-CSF; FIG. 6
# Text: (§1) Antibodies: Anti-CD89 (Clone A59) (both unlabeled and phycoerythrin [PE]-conjugated), and PE-conjugated immunoglobulin G1 (IgG1) isotype control were from BD Biosciences (Basel, Switzerland). Goat anti-mouse IgG (GaM) and unlabelled control IgG1 were obtained from Jackson ImmunoResearch Laboratories (distributed by Milan Analytica, La Roche, Switzerland). Anti-Fas agonistic mAb (CH11) was obtained from LabForce AG (Nunningen, Switzerland). Pooled serum IgA was obtained from CSL Behring AG (Wankdorf, Bern), and was prepared as follows: IgA was purified from human plasma and side-fraction of the IVIg/SCIg manufacturing process by affinity chromatography using CaptureSelect Human IgA resin from BAC (Naarden, Netherlands). […] Cell purity was assessed by staining with Diff-Quik (Baxter, Düdingen, Switzerland) and light microscopy analysis. […] Immunofluorescence: CD89 surface expression was analyzed by flow cytometry following incubation of the cells with saturating concentrations of PE-conjugated anti-CD89 and isotype-matched PE-conjugated control mAbs. […] The caspase inhibitor qVD-OPh (quinoline-Val-Asp-difluorophenoxymethylketone) was used at […] Determination of Cell Death and Apoptosis: Cell death was assessed by uptake of 1 μM ethidium bromide and flow cytometric analysis (FACSCalibur, Becton Dickinson). […]
# [2] = test system: human neutrophils; assay: CD89 surface expression on neutrophils by flow cytometry after inflammatory stimulus; format: cell-based
# Text: as §1
Molecule,effect on plasma IgA-mediated neutrophil cell death [1],"CD89 expression on neutrophils ([2]; 8 hours, 100 ng/ml LPS or 10 ng/ml GM-CSF, blood neutrophils of healthy volunteers, FIG. 1A)","time to significant upregulation of CD89 expression ([2]; time course, FIG. 1B) [h]"
"CC(C)[C@H](NC(=O)c1ccc2ccccc2n1)C(=O)N[C@@H](CC(=O)O)C(=O)COc1c(F)cccc1F [qVD-OPh, quinoline-Val-Asp-difluorophenoxymethylketone]",blocked,,
GM-CSF: Cytokine (Novartis Pharma) used as inflammatory stimulus,,CD89 expression was increased,4
